The values that follow come from patent US20240108585A1, “COMPOSITIONS COMPRISING LIPID-BASED NANOPARTICLES FOR TREATING DIABETES MELLITUS” (SDG, Inc., priority 2018, published 2024).

Data set [1] concerns adult Type 1 diabetes mellitus. In words: Example 2 pump study: randomized double-blinded two-way crossover, HDV lispro vs lispro by insulin pump, CGM and mixed meal test. As to conditions: baseline HbA1c 7.19; 3-week pump period; 7 subjects. Format: in vivo, human. An excerpt: A study was run comparing the efficacy of HDV lispro vs. lispro to treat adult Type 1 diabetes mellitus when administered by pump. The study involved 7 subjects and was a randomized, double-blinded two-way crossover study. The dosing duration was 3-week on standard insulin x 3-week on HDV-insulin with infusion via standard commercial insulin pumps, and a mixed meal test was employed; continuous glucose monitoring was achieved via blinded Dexcom G4 Platinum Continuous Glucose Monitor. The baseline HbA1c was 7.19, and the ending HbA1c was 7.21 (for the HDV group) and 7.08 (for the lispro group).

In data set [2] the test system is adult Type 1 diabetes mellitus. The experiment in a line: Example 3: double-blinded randomized six-week parallel study, HDV lispro vs lispro, multiple daily injections, CGM. Format: in vivo, human. The text has this: A double-blinded, randomized study was run comparing the efficacy of HDV lispro vs. lispro to treat adult Type 1 diabetes mellitus. The study involved 43 (1:1) subjects (who were considered to be in good control, with HbA1c levels between 7-8%) and was a six-week parallel design study, with multiple daily injections. The baseline HbA1c was 7.35 (HDV group) and 7.39 (lispro group). The primary endpoint was a two-hour reduction in glucose time out of range.

The subject of data set [3] is type 1 diabetes mellitus (T1DM). The experiment in a line: ISLE-1: 26-week Phase 2b multicenter randomized double-blind non-inferiority trial, HDV-L vs LIS, multiple daily injections. An excerpt: ISLE-1 was a 26-week, Phase 2b, multicenter, randomized, double-blind, non-inferiority trial.
ISLE-1 was a 26-week, Phase 2b, multicenter, randomized, double-blind, trial in T1DM treated with multiple daily injections (MDI) of insulin.
Main inclusion criteria were: age ≥18 years; T1D for ≥12 months; A1c ≥7.0 ([…]) to ≤10.5% (≤91 mmol/mol); treated with insulins glargine or detemir for basal coverage. Main exclusion criteria were total insulin dose ≥1.5 IU/kg/day or NPH insulin as basal.
Prandial dosing of HDV-lispro or control lispro was 15 minutes prior to the meal, and basal insulins were administered either as a single daily dose or a divided twice per day dosing, every 12 hours.
Informed of −10% dilution, participants continued their current insulin parameters. Hypoglycemia was recorded on Case Report Forms (CRFs) based on subject diaries and SMBG records, subjectively investigator-judged as “mild,” “moderate,” “severe,” or “life threatening.” Blinded continuous glucose monitoring (CGM) (Dexcom G4) was used for 5-7 days to assess glucose at baseline, weeks 13 and 26. A1c, lipids, and liver enzymes were measured approximately monthly. Liver fat content MRIs were performed in a subset.
The intent to treat (ITT) population included all randomized subjects receiving at least one dose of study treatment. Safety analyses included all randomized subjects. […] Mean A1c change was analyzed using ANCOVA within intent-to-treat (ITT) cohort at each visit. Post hoc subgroup analyses (baseline A1c <8.5% vs ≥8.5%) were performed, this cut point corresponding to pre-specified randomization strata. Direct likelihood models were used for treatment arm A1c comparisons, % time <54 mg/dL, bolus insulin, and basal insulin within the two A1c subgroups. Poisson regression models adjusting for site as random effect compared “severe” hypoglycemia incidence rates within A1c groups, testing for baseline A1c by treatment group interaction. Event number/subject was truncated at 15, accounting for extreme outliers.

Turning to insulin lispro, in data set [1], the “ending HbA1c” value was found to be 7.08. Further, in data set [2], the “Time in Range (70-180 mg/dL), increase” value is recorded as “*No Change in Lispro Group” and the “Time in Target (70-140 mg/dL), increase” value was “*No Change in Lispro Group”. Moreover, the “treatment-related serious adverse events” value in data set [3] (26 weeks) was “No treatment-related serious adverse events were reported”. For the same substance, the “Mean change in A1c baseline to Week 26” value in data set [3] (all subjects, HDV-L n=118, LIS n=58) is −0.16%. In addition, in data set [3] (baseline A1c <8.5%), the “change in A1c over time” value is on record as “little change”. Moreover, the “time <54 mg/dL during Week 26 (median)” value in data set [3] (baseline A1c <8.5%, CGM, p=0.16) is given as 0.6%. The “CRF-reported incidence of "severe" hypoglycemia” value in data set [3] (baseline A1c <8.5%, p=0.001, unit not given) is 21. For the same substance, the “percentage time <54 mg/dL during Week 26 (median)” value in data set [3] (baseline A1c >8.5%, CGM, p=0.09) was found to be 2.6%. Also, the “change in total cholesterol” value in data set [3] (over the study) is given as 7.3 mg/dL. In addition, in data set [3] (whole study), the “"life threatening" hypoglycemia events” value is listed as “No “life threatening” events were recorded”.
